Each structure is given as a SMILES string.

These results are taken from patent US20260083704A1, “LXR MODULATORS WITH BICYCLIC CORE MOIETY FOR TREATING DYSLIPIDEMIAS” (OrsoBio, Inc., priority 2022, published 2026).

Experiment [1] addresses T1, GST-LXRβ ligand-binding domain (Homo sapiens, UniProt P55055).
T1 construct: amino acids 156-461; NP009052; made in house; host or cells: E. coli
T1 sequence (P55055 156-460 limits assumed): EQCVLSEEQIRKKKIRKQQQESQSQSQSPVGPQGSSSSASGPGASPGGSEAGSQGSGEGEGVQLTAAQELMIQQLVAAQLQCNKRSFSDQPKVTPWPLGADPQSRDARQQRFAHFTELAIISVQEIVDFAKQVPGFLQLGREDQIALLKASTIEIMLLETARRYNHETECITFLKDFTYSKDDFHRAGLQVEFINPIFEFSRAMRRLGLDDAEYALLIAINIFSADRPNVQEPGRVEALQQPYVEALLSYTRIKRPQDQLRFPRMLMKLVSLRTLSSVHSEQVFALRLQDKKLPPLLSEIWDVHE
The experiment in a line: TR-FRETβ activity assay (NCoA3 coactivator peptide recruitment). The conditions noted are these: 1 μM 24(S)-25-epoxycholesterol prestimulation. The format is biochemical. An outline of the steps: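 E. coli-expressed GST-LXRβ LBD (aa 156-461, 76 nM) with biotinylated NCoA3 peptide (400 nM) in Tris/HCl pH 6.8 containing 1 μM 24(S)-25-epoxycholesterol agonist. Compounds tested at 50 μM down to 0.002 μM in triplicate. TR-FRET (Tb cryptate/XL665, ex 340, em 615/665 nm) read after 1 h at 4° C.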

The next experiment has as its target T2, LXRβ (Homo sapiens, UniProt P55055).
T2 sequence (P55055 1-460): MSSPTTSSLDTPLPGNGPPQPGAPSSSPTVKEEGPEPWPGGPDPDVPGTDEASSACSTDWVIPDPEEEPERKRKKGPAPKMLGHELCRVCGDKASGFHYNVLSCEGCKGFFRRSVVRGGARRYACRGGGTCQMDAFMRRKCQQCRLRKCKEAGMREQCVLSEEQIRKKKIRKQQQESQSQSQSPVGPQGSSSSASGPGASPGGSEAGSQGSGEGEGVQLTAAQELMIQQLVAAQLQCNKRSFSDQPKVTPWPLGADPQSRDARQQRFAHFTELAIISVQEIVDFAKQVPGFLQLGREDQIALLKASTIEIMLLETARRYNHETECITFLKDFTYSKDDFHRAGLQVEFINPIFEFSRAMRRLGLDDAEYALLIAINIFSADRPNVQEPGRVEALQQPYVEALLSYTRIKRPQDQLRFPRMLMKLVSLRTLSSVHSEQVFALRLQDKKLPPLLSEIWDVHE
Description: LXR Gal4 reporter transient transfection assay (mammalian two-hybrid, HEK293), LXRβ. The conditions noted are these: full length (FL) LXRβ, HEK293; read-out: FL-M2H Gal4β. The format is cell-based. Further details: LXRβ (amino acids 156-461); expressed in transfected cells; host or cells: HEK293. Summed up: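 HEK293 cells transiently co-transfected with full-length or LBD LXRα/LXRβ fused to NFkB activation domain, GAL4-DBD-fused SRC1 or NCoR cofactor domain, GAL4-responsive firefly luciferase reporter and Renilla control. Compound added 4 h post-transfection (≤0.2% DMSO), incubated 16 h; firefly and Renilla luminescence read sequentially.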

Turning to `Cc1ccc(S(=O)(=O)n2c(-c3cccc(-c4ccc(C(=O)O)cc4Cl)c3)c(-c3ccc(C)cc3C#N)c3cc(F)ccc32)cc1` [11/4], the EC50 in experiment [1] is 100 to 1000 nM; at LXRβ it was < 100 nM.
In the same order, the values of `Cc1ccc(S(=O)(=O)n2c(-c3cccc(-c4ccc(C(=O)O)c(C)c4Cl)c3)c(-c3ccsc3C#N)c3cc(F)ccc32)cc1` [12/1] are 100 to 1000 nM and < 100 nM.
In the same order, the values of `N#Cc1cc(C(=O)O)ccc1-c1cccc(-c2c(-c3ccccc3C#N)c3cc(F)ccc3n2S(=O)(=O)c2ccc(C(F)F)cc2)c1` [11/30] are < 100 nM and < 100 nM.
On the same counts, the results for `COCc1sccc1-c1c(-c2cccc(N3CC(C(=O)O)C3)c2)n(S(=O)(=O)c2ccc(C)cc2)c2ccc(F)cc12` [3/6] are 1000 to 10000 nM and 100 to 1000 nM.
Turning to `COc1cc(-c2c(-c3cccc(-c4ccc(C(=O)O)cc4Cl)c3)n(S(=O)(=O)c3ccc(C(F)F)cc3)c3ccc(F)cc23)c2c(C#N)cnn2c1` [11/46], the EC50 (in experiment [1]; at LXRβ) was < 100 nM each time.
Turning to `N#CC1=C(c2c(-c3cccc(-c4ccc(C(=O)O)cc4Cl)c3)n(S(=O)(=O)c3ccc(C(F)F)cc3)c3ccc(F)cc23)CCCC1` [11/42], the EC50 is > 10000 nM in experiment [1] and 100 to 1000 nM at LXRβ.
On the same counts, the results for `Cc1ccc(S(=O)(=O)n2c(-c3cccc(N4CC(C(=O)O)C4)c3)c(-c3ccsc3C(F)(F)F)c3cc(F)ccc32)cc1` [3/30] are 100 to 1000 nM and < 100 nM.
In the same order, the values of `Cc1cccc(C(F)F)c1-c1c(-c2cccc(-c3ccc(C(=O)O)cc3Cl)c2)n(S(=O)(=O)c2ccc(C(F)F)cc2)c2ccc(F)cc12` [11/38] are < 100 nM and < 100 nM.
Regarding `[2H]c1c([2H])c(S(=O)(=O)n2c(-c3cccc(-c4ccc(C(=O)O)cc4Cl)c3)c(-c3ccsc3C#N)c3cc(F)ccc32)c([2H])c([2H])c1C([2H])([2H])[2H]` [3/22], the EC50 (in experiment [1]; on LXRβ) was < 100 nM in each case.
With `Cc1ccc(S(=O)(=O)n2c(-c3cccc(N4CC(C(=O)O)C4)c3)c(-c3ccsc3C#N)c3cc(F)ccc32)c(F)c1` [3/14], the EC50 in experiment [1] fell in the range of 1000 to 10000 nM; on LXRβ it was 100 to 1000 nM.
In the same order, the values of `CC1CCN(S(=O)(=O)n2c(-c3cccc(-c4ccc(C(=O)O)cc4Cl)c3)c(-c3ccsc3C#N)c3cc(F)ccc32)CC1` [3/21] are 100 to 1000 nM and < 100 nM.
In the same order, the values of `CC1(C)CCN(S(=O)(=O)n2c(-c3cccc(-c4ccc(C(=O)O)cc4)c3)c(-c3ccsc3C#N)c3ccccc32)CC1` [3/66] are 1000 to 10000 nM and 100 to 1000 nM.
In the same order, the values of `N#Cc1scnc1-c1c(-c2cccc(-c3cc(F)c(C(=O)O)cc3Cl)c2)n(S(=O)(=O)c2ccc(C(F)F)cc2)c2ccc(F)cc12` [11/9] are < 100 nM and < 100 nM.
`N#Cc1sccc1-c1c(-c2cccc(N3CC(C(=O)O)C3)c2)n(S(=O)(=O)c2ccc(C(F)F)cc2)c2ccc(F)cc12` [3/35]: the EC50 in experiment [1] is 100 to 1000 nM; at LXRβ it was < 100 nM.
On the same counts, the results for `N#Cc1ccccc1-c1c(-c2cccc(-c3ccc(C(=O)O)cc3Cl)c2)n(S(=O)(=O)c2ccc(C(F)F)cc2)c2cccnc12` [8/7] are 100 to 1000 nM and < 100 nM.
`N#Cc1cccc(C#N)c1-c1c(-c2cccc(-c3ccc(C(=O)O)cc3Cl)c2)n(S(=O)(=O)C2CC3CCC2C3)c2ccc(F)cc12` (stereo not shown) [11/66]: the EC50 in experiment [1] is 100 to 1000 nM; at LXRβ, < 100 nM.
Consider `COc1ccc(S(=O)(=O)n2c(-c3cccc(N4CC(C(=O)O)C4)c3)c(-c3ccsc3C#N)c3cc(F)ccc32)cn1` [5/8], for which the EC50 (in experiment [1]; at LXRβ) was 100 to 1000 nM each time.
Take `N#Cc1cccc(C#N)c1-c1c(-c2cccc(-c3c(F)c(F)c(C(=O)O)c(F)c3F)c2)n(S(=O)(=O)c2ccc(C(F)F)cc2)c2ccc(F)cc12` [11/54]: the EC50 (in experiment [1]; on LXRβ) was < 100 nM in each case.
On to `O=C(O)c1ccc(-c2cccc(-c3c(-c4cccc5nncn45)c4cc(F)ccc4n3S(=O)(=O)c3ccc(C(F)F)cc3)c2)c(Cl)c1` [11/43], for which the EC50 (in experiment [1]; on LXRβ) was 100 to 1000 nM in each case.
Consider `Cc1ccc(S(=O)(=O)n2c(-c3cccc(N4CC(C(=O)O)C4)c3)c(-c3ccsc3C(F)F)c3cc(F)ccc32)cc1` [3/4], for which the EC50 in experiment [1] is 100 to 1000 nM; on LXRβ, < 100 nM.
On the same counts, the results for `N#Cc1cccc(C#N)c1-c1c(-c2cccc(-c3ccc(C(=O)O)cc3Cl)c2)n(S(=O)(=O)c2ccc(Cl)cc2)c2ccc(F)cc12` [11/55] are < 100 nM and < 100 nM.
In the same order, the values of `Cc1ccc(S(=O)(=O)n2c(-c3cccc(N4CC(C(=O)O)C4)c3)c(-c3ccccc3C3COC3)c3cc(F)ccc32)cc1` [3/31] are 100 to 1000 nM and 100 to 1000 nM.
Regarding `Cc1ccc(S(=O)(=O)n2c(-c3cccc(C4CC4C(=O)O)c3)c(-c3ccsc3C#N)c3cccnc32)cc1` (stereo not shown) [4/2], the EC50 in experiment [1] is 1000 to 10000 nM; at LXRβ, 100 to 1000 nM.
In the same order, the values of `N#Cc1sccc1-c1c(-c2cccc(N3CC(C(=O)O)C3)c2)n(S(=O)(=O)c2ccc3c(c2)CCC3)c2ccc(F)cc12` [3/12] are 100 to 1000 nM and < 100 nM.
For the molecule `Cc1ccc(S(=O)(=O)n2c(-c3cccc(C4(C)CC4C(=O)O)c3)c(-c3ccsc3C#N)c3cc(F)ccc32)cc1` (stereo not shown) [3/1], the EC50 (in experiment [1]; at LXRβ) was 100 to 1000 nM throughout.
For the molecule `N#Cc1sccc1-c1c(-c2cccc(N3CC(C(=O)O)C3)c2)n(S(=O)(=O)c2ccc(C(F)(F)F)cc2)c2ccc(F)cc12` [3/34], the EC50 is 100 to 1000 nM in experiment [1] and < 100 nM at LXRβ.
In the same order, the values of `Cc1ccc(S(=O)(=O)n2c(-c3cccc(N4CC(C(=O)O)C4)c3)c(-c3ccsc3C#N)c3cc(F)ccc32)cc1` [3/32] are 100 to 1000 nM and < 100 nM.
In the same order, the values of `N#Cc1cccc(F)c1-c1c(-c2cccc(-c3ccc(C(=O)O)cc3Cl)c2)n(S(=O)(=O)c2ccc(C(F)F)cc2)c2ccc(F)cc12` [11/34] are < 100 nM and < 100 nM.
Consider `Cc1ccc(S(=O)(=O)n2c(-c3cccc(-n4ccc(C(=O)O)cc4=O)c3)c(-c3ccsc3C#N)c3cc(F)ccc32)cc1` [5/5], for which the EC50 (in experiment [1]; at LXRβ) was 100 to 1000 nM in each case.
As to `Cc1ccc(S(=O)(=O)n2c(-c3cccc(N4CC(C(=O)O)C4)c3)c(-c3ccsc3C#N)c3sccc32)cc1` [4/3], the EC50 in experiment [1] is 1000 to 10000 nM; on LXRβ, < 100 nM.
On the same counts, the results for `Cn1ccc(-c2c(-c3cccc(-c4ccc(C(=O)O)cc4Cl)c3)n(S(=O)(=O)c3ccc(C(F)F)cc3)c3ccc(F)cc23)c1C#N` [11/68] are < 100 nM and < 100 nM.
In the same order, the values of `Cc1ccc(S(=O)(=O)n2c(-c3cccc(C4CC5(CC(C(=O)O)C5)C4)c3)c(-c3ccsc3C#N)c3cc(F)ccc32)cc1` (stereo not shown) [3/65] are 100 to 1000 nM and < 100 nM.
On the same counts, the results for `Cc1ccc(S(=O)(=O)n2c(-c3cccc(N4CC(C(=O)O)C4)c3)c(-c3ccsc3C=O)c3cc(F)ccc32)cc1` [3/5] are 100 to 1000 nM and 100 to 1000 nM.
In the case of `Cc1ccc(S(=O)(=O)n2c(-c3ccnc(-c4ccc(C(=O)O)cc4)c3)c(-c3ccsc3C#N)c3cc(F)ccc32)cc1` [5/6], the EC50 was 100 to 1000 nM in experiment [1] and < 100 nM on LXRβ.
In the same order, the values of `Cc1cc(S(=O)(=O)n2c(-c3cccc(-c4ccc(C(=O)O)cc4Cl)c3)c(-c3ccsc3C#N)c3cc(F)ccc32)ccc1F` [3/23] are 100 to 1000 nM and < 100 nM.
